Results: patent US5262157A (priority 1988, dated 1993)
Where two headings read alike, the source gives them in different places.

What was measured:
[1] = in vivo; conditions: rat; for Pentamidine concentration, Kidney: aerosol 0.4 mg/kg/day, 24 h after last dose
Method: (§1) Rats were treated in groups of four. […] Doses in all trials were calculated as above.

[2] = in vivo
Method: The dose was calculated from the product of the concentration of the drug in the chamber, the minute volume of the rats (lung vol.×resp. rate), and the time of exposure. In all experiments exposure time was 15 min, male Sprague-Dawley rats with an average weight of 250 g were used, and the minute volume of the rats was assumed to be 70 ml. Rats were treated in groups of four. […] The aerosol was generated by oxygen flowing at 8 l/min through the nebulizer (Cadema Medical Products, part no. CA 61, Middletown, N.Y.). The drug solution was aerosolized at 0.3 ml/min with an expected mean particle diameter of 0.5-0.8 micron. […] This concentration multiplied by the minute volume and the exposure time gives a dose of 1.0 mg; since the rats weighed 0.25 kg, the dose was 4.0 mg/kg. Doses in all trials were calculated as above.
Four rats were studied at each time.

[3] = in vivo; conditions: rat; for concentration at 24 h: inhaled or intranasal, 3.2 mg/kg/day, aerosol 3.2 mg/kg daily × 4, 24 h after last dose
Method: as §1
Treatments were well-tolerated. […] There were rare foci of mild thickening of interalveolar septae containing a few histiocytes and some congestion. […] These were also seen in sections from control animals and are common findings in normal rat lung.

[4] = human, in vivo
From the text: Patients were 18 years old or older and outpatients judged free of any imminently-critical medical problems. All patents received a complete physical examination and medical history evaluation. Pretreatment laboratory studies included a CBC with differential and platelet count, a biochemical screening profile, chest X-ray, and pulmonary function tests including spirometry and measurement of diffusion capacity.
Each patient was issued a device at the start of the study. These devices were labeled with the patient's code number. The devices are simple to operate and their sterility was ensured as components were replaced after a single use. New sterile plastic reservoirs for the drug solution and new sterile suction rods were used for each treatment.
(§2) Each aerosol treatment was given over 15-30 minutes. […] 1.0, 1.5,or 2.0 ml aliquots were added to the nebulizer reservoir for doses of 30, 45, or 60 mg, respectively. Sterile pyrogen-free water was added to yield a total volume of 3.0 ml. Treatments were administered by a physician or registered nurse.
Signs of systemic toxicity were monitored. To detect adverse effects on the lungs, pulmonary function was monitored.
All problems were judged a concomitant illness or adverse reaction based on the following definitions. […]
Patients were interviewed before and after each treatment and any adverse reactions, complaints, or comments recorded. […]

[5] = test system: Pneumocystis carinii; assay: Clinical effectiveness of aerosol pentamidine in prophylaxis of PCP; format: in vivo, human
Method: as §2
Prophylaxis was judged effective for an individual patient if that patient had no proven or probable episodes of PCP. Prophylaxis was considered a proven failure if a patinet developed pneumonia and P. carinii was found in stained preparations obtained by bronchoscopy or lung biopsy. Prophylaxis was considered a probable failure if a patient develops pneumonia and responded to empiric treatment with SXT […]. If a patient died and no autopsy was perfomed, the case was considered not evaluable unless there was evidence that the patient had good antemortem pulmonary function and died from other causes. If the latter conditions were met, the case was considered a probable success.
The treatment period was three months; patients were examined before and after each treatment and underwent pulmonary function testing and biochemical and hematologic tests before treatment no. 1 and after treatment nos. 1, 2, 4, and 6.
A total of 650 treatments were given. Treatment periods ranged from 1-12 months. […] They had no reactions after their first four doses and was receiving several other medications at the time the rash developed. […] Five proven episodes of PCP have occurred among patients who received biweekly doses of 30 mg; six proven episodes of PCP have occurred among patients who were treated with this dose, but who skipped one or more scheduled doses.
A total of 73 patients were enrolled over the past two months with approximately equal numbers at each dose level. […] Patients who were receiving the low dose have since been randomized to receive either 45 or 60 mg. To date two patients receiving 45 mg have had proven episodes of PCP.

[6] = test system: Pneumocystis carinii; conditions: patients with AIDS, IV or IM 4 mg/kg/day, 14-21 days; cited from earlier work
[7] = test system: Pneumocystis carinii; conditions: animal model of PCP; cited from earlier work
[8] = in vivo; conditions: rat, im, 4 mg/kg, level in the lungs
Method: Intramuscular (IM) doses were administered to the hindcalves of male Sprague-Dawley rats (240-260 g, Charles River Breeding Laboratories, Wilmington, Mass.).
Animals were sacrificed at 24 h after the last dose.

[9] = rat, aerosol doses greatly exceeding the therapeutic dose; cited from earlier work
[10] = cited from earlier work
[11] = Pentamidine tissue concentrations in humans after intravenous infusions; conditions: human, IV 4.0 mg/kg/day
[12] = rat, in vivo, inhaled or intranasal, 4 mg/kg
[13] = aerosol 45 mg, weekly for four weeks then biweekly

N=C(N)c1ccc(OCCCCCOc2ccc(C(=N)N)cc2)cc1 [pentamidine, Pentamidine isethionate]
Pentamidine concentration, Kidney ([1]; 1 dose): NMA
Pentamidine concentration, Kidney ([1]; 2 doses): NMA
Pentamidine concentration, Kidney ([1]; 4 doses): NMA
concentration at 24 h ([1]; in vivo, inhaled or intranasal, 0.4 mg/kg/day, levels in the lung): 60500 ng/g
amount retained per animal ([2]; rat, in vivo, 4 mg/kg): 60 µg
fraction of inhaled drug retained ([2]; rat, in vivo, 4 mg/kg): about 6.0%
retained dose ([2]; rat, in vivo, 4 mg/kg): 0.24 mg/kg
amount of drug retained in the lungs [2, 12]: about 40 mcg/g
half-life [2, 12]: 36 days
retention in the lungs ([2]; single aerosol dose): retained in the lungs for many weeks
concentration at 24 h ([3]; kidney): 7200 ng/g
concentration at 24 h ([3]; lung): 291000 ng/g
lung weight and appearance ([3]; aerosol 3.2 mg/kg daily × 4): normal in weight and appearance
toxicity of high lung concentrations ([3]; aerosol 3.2 mg/kg daily × 4): little or no toxicity
tolerability of treatments ([3]; aerosol 3.2 mg/kg daily × 4 (total dose 12.8 mg/kg)): well-tolerated
histopathology of lungs ([3]; aerosol 3.2 mg/kg daily × 4, stained sections): no histopathologic changes were found
tolerability of treatments [4]: well tolerated
proven episodes of PCP ([5]; aerosol 30 mg biweekly, 60 patients, 1-12 months): Five
proven episodes of PCP in patients who skipped one or more scheduled doses ([5]; aerosol 30 mg biweekly, skipped doses): six
proven or possible episodes of PCP ([5]; aerosol 30 mg biweekly, twelve patients, three months): no patient had a proven or possible episode of PCP
protection ([5]; aerosol 30 mg dose): not reliably protective
patients with proven episodes of PCP [5, 13]: two
severity of PCP episodes [5, 13]: very mild episodes
mild cases of PCP ([5]; all phases, 960 doses, 116 patients): seven
protection ([5]; all phases, preliminary evidence): at least partially protective
treatment of PCP infection [6]: highly effective in treatment of PCP infection
prophylaxis of PCP with IV or IM pentamidine [7]: unsuccessful in the animal model of PCP
concentration at 24 h [8]: 800 ng/g
toxicity in histopathologic sections from the lungs [9]: No toxicity was seen
elimination from blood ([10]; IV or IM): eliminated rapidly from blood
elimination from tissues ([10]; in vivo): eliminated slowly from them
Pentamidine concentration, Adrenal ([11]; 1 dose): 19 µg/g
Pentamidine concentration, Kidney ([11]; 1 dose): 8.5 µg/g
Pentamidine concentration, Liver ([11]; 1 dose): 35 µg/g
Pentamidine concentration, Spleen ([11]; 1 dose): 40 µg/g
Pentamidine concentration, Kidney ([11]; 2 doses): 13 µg/g
Pentamidine concentration, Liver ([11]; 2 doses): 23 µg/g
Pentamidine concentration, Spleen ([11]; 2 doses): 40 µg/g
Pentamidine concentration, Kidney ([11]; 5 doses): 62 µg/g
Pentamidine concentration, Liver ([11]; 5 doses): 112 µg/g
Pentamidine concentration, Lung ([11]; 5 doses): 42 µg/g
Pentamidine concentration, Spleen ([11]; 5 doses): 28 µg/g
Pentamidine concentration, Adrenal ([11]; 15 doses): 92 µg/g
Pentamidine concentration, Kidney ([11]; 15 doses): 123 µg/g
Pentamidine concentration, Liver ([11]; 15 doses): 300 µg/g
Pentamidine concentration, Lung ([11]; 15 doses): 56 µg/g
Pentamidine concentration, Spleen ([11]; 15 doses): 368 µg/g
